# Where two headings read alike, the source gives them in different places.
# System: isolated rabbit thoracic aorta preparations
# Assay: Vessel relaxation in isolated rabbit thoracic aorta rings precontracted with noradrenaline
# Conditions: Oryctolagus cuniculus
# [1] = read-out: Vessel Relaxation Data ED50
# [2] = read-out: vessel relaxation EC50
SMILES,EC50 [1],EC50 [2]
Cc1ncc2c(c1O)CO[C@H]2c1ccc(Cl)cc1,35.8 µM,
Cc1ncc2c(c1OC(=O)C1C[C@H](O[N+](=O)[O-])[C@H](O[N+](=O)[O-])C1)CO[C@H]2c1ccc(Cl)cc1 (stereo partly drawn),6.29 µM,
CO[C@H]1C[C@H](C(=O)O)C[C@@H]1O[N+](=O)[O-],126 µM,
CO[C@H]1CC(C(=O)Oc2c(C)ncc3c2CO[C@H]3c2ccc(Cl)cc2)C[C@@H]1O[N+](=O)[O-] (stereo partly drawn),18.8 µM,
"CC(=O)N[C@H](C(=O)O)C(C)(C)SN=O (racemic) [SNAP, S-nitroso-N-acetylpenicillamine, reference compound]",0.237 µM,
Cc1ncc2c(c1OC(=O)OC[C@H]1C[C@H](O[N+](=O)[O-])[C@H](O[N+](=O)[O-])C1)COC2c1ccc(Cl)cc1 (stereo partly drawn) [Example 39],,< 50 µM
Cc1ncc2c(c1OC(=O)OC[C@@H]1C[C@H](O[N+](=O)[O-])[C@H](O[N+](=O)[O-])C1)COC2c1ccc(Cl)cc1 (stereo partly drawn) [Example 40],,< 50 µM
Cc1ncc2c(c1OC(=O)O[C@H]1CO[C@H]3[C@@H]1OC[C@H]3O[N+](=O)[O-])COC2c1ccc(Cl)cc1 (stereo partly drawn) [Example 45],,< 50 µM
"CO[C@H]1C[C@@H](C(=O)Oc2c(C)ncc3c2CO[C@H]3c2ccc(Cl)cc2)C[C@@H]1O[N+](=O)[O-] [Example 60, (3S)-3-(4-chlorophenyl)-6-methyl-1,3-dihydrofuro[3,4-c]pyridin-7-yl(1R,3S,4S)-3-methoxy-4-(nitrooxy)cyclopentanecarboxylate]",,< 50 µM

# — patent publication US8119806B2, “Cicletanine derivatives” (Merck Sharp & Dohme Corp., priority 2008, dated 2012)
